Data taken from patent US20260364213A1, “RADIOLABELED COMPOUNDS OF TRIMETHOPRIM AND USES THEREOF” (THE TRUSTEES OF THE UNIVERSITY OF PENNSYLVANIA, priority 2023, published 2026).
Values joined by “and” are separate entries in the source; they are usually repeats but may differ in a detail not shown here. Identical values can stand only once. “Also recorded” adds a separate entry of the source. Like-named read-outs stand apart in the source and are kept apart here.

Experiments:
[1] = tested on: I45 and SKOV3 cells; assay: Cytotoxicity in wild-type and eDHFR-YFP-expressing I45 and SKOV3 cells; type: cell-based, human
Method: After 72 hours of incubation, the surviving fraction of the cells was quantified using CellTiter-Glo (Promega #G9243). See, Makvandi, Molecular cancer therapeutics. […] The assay was performed three times in triplicates. […] See, Lee, Journal of nuclear medicine.

[2] = molecular target: T1, eDHFR-YFP (Escherichia coli, UniProt P0ABQ4); assay: Radioligand binding to eDHFR-YFP expressing cells; set-up: species or system E. coli; conditions: read-out: Kd
T1 sequence (P0ABQ4 1-159): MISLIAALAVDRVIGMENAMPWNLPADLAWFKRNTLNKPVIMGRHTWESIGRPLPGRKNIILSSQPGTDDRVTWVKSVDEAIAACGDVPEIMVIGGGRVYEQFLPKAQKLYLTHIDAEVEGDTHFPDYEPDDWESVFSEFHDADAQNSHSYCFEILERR
Method: Due to the high specific activity of [^211At]At-TMP that limits its working concentration to pM range, [^125I]I-TMP was used for saturation binding studies to determine Bmax.
eDHFR-YFP-positive I45 and SKOV3 cells were plated on 96-well plates (Corning #9102) at the density of 25,000 cells/well and 40,000 cells/well, respectively, in complete growth media 24 hours before the assay. […] After incubation at 37 °C for 90 minutes, the wells were aspirated and washed twice with ice-cold PBS. The radioactivity in each well was measured with a Perkin Elmer Wizard gamma counter. The assay was performed three times in triplicates. […] See, Swillens, Molecular pharmacology. 1995; 47(6):1197-203. The corresponding EC50 values were plotted against the receptor concentration/2 to determine the Kd. See, Hulme, British journal of pharmacology. 2010; 161(6):1219-37. The Bmax values were correlated with the total YFP florescence from the wells, with a correction factor of 2.5 and 2.2 for membrane-bound eDHFR-YFP in I45 and SKOV3, respectively, in order to account for decreased fluorescence per molecule from addition of the membrane localization signal to YFP. See, Wu, Science. 2005; 310(5746):310-4; and Bakholdina, Molecules. 2021; 26(13).
For determination of the Kd of [^211At]At-TMP, the binding assay protocol was repeated in I45 and SKOV3 cells expressing cytoplasmic eDHFR-YFP, using 150 μL of 0.06-60 nM [^125I]I-TMP±10 μM TMP for half of each 96-well plate and 50-260 μL of […] [^211At]At-TMP±10 μM TMP for the remaining half. The Bmax of each plate determined from [^125I]I-TMP binding was divided by the assay volumes used for [^211At]At-TMP to calculate the total receptor concentration ([RT]) in each [^211At]At-TMP well. The ligand depletion (δ) in each [^211At]At-TMP well was obtained by dividing the bound radioactivity by total added radioactivity. The assay was performed four times in triplicates. As derived in Supplemental Methods 1, δ^−1 was plotted against [RT]^−1 to determine the Kd as the slope of the linear best-fit line.
Supplemental Method 1. Measurement of the dissociation constant (Kd) of [^211At]At-TMP binding to eDHFR under non-saturating, ligand-depleting conditions. When [Ligand]<<Kd, ligand depletion (6) at equilibrium is
where [R] is the free receptor concentration and [RT]is the total receptor concentration. Since 6 is non-zero, taking the reciprocal of both sides of the equation yields
[formula] • If a δ^−1 vs. [RT]^−1 graph where y=δ^−1 and x=[RT]^−1 is plot,
Therefore, the slope of the linear best-fit line represents the Kd and the y-intercept is 1.

[3] = molecular target: T2, eDHFR (Escherichia coli, UniProt P0ABQ4); conditions: HEK293T-eDHFR-YFP vs HEK 293 WT; 0.037 MBq, 1 hour; 60 min
T2 sequence (P0ABQ4 1-159): T1 sequence (P0ABQ4 1-159)

[4] = tested on: OVCAR8-eDHFR-Luc cells; assay: Kill assay (MTT) in OVCAR8-eDHFR-Luc cells; type: cell-based, human; conditions: 18.5 MBq, 1 h; viability to day 12
Method: Following the same uptake protocol till washing after the third wash the cells were counted using cell counter and they were diluted to generate even number of cells/mL. […] We've applied the same blocked conditions used in the uptake assay. […] Then cells will be re-distributed into 96 well plates (2,000 cells/well) with fresh media to monitor cell proliferation by MTT assay on days 1, 3, 7 and 10. A total of 9 wells (3×3) were measured on the plate per sample per time point. To complete the assay cell media was removed and replaced with 50 μL of serum free media and 50 μL of MTT reagent. The plates were covered with tin foil and incubated at 37 °C for 3 hours. The plates were shaken at 200 rpm at 37 °C for 15 min. Using the microplate plate reader, sample absorbance was measured at 590 nm for 600 ms. Controls included [^131I]NaI treated cells and blocking with 10 μM parent TMP (unlabeled). An analogous procedure was used for the OVCAR8-eDHFR-Luc kill assay with different doses (1.85-37 MBq) and treatment times.
To investigate the therapeutic potential of m[^131I]mI-TMP 5b in tumor cell lines, OVCAR8 eDHFR+ cells were exposed to varying doses (ranging from 1.85-37 MBq) of the radiotracer of 5b at different incubation times. Different conditions were employed to assess the selective therapeutic effect of the radio tracer on eDHFR+ cells. To determine the specific killing of eDHFR+ tumor cells, blocked conditions were analyzed. The cell viability of compound 5b-treated cells was also compared with the cells exposed to [^131I]I—Na. Additionally, untreated cells were used as controls. The MTT assay was used to measure the cell viability of the cells under the aforementioned conditions on days 1, 3, 7, and 12.
OVCAR8-eDHFR-Luc+ cells were treated with 1.85 and 18.5 MBq of m[^131I]mI-TMP 5b and [^131I]I—Na, incubated for 1 hour. […] The cell viability of the compound 5b-treated cells was similar to cells under blocked, [^131I]NaI, and no drug conditions. See, FIG. 2A. […] See, FIG. 2B. Based on the results obtained, a continued dose escalation was considered to better understand the therapeutic window. Finally, OVCAR_eDHFR+ cells were tested with 37 MBq dose of m[^131I]mI-TMP.

[5] = In vitro stability in RPMI 1640 medium; type: physicochemical; conditions: 37 °C, up to 6 hours, radio-HPLC
Method: The specific activity of [^211At]At-TMP and [^125I]I-TMP was determined by comparison of radioactivity to the area under 288-nm ultraviolet light peak on radio-HPLC. The in vitro stability of [^211At]At-TMP was examined with incubation in Roswell Park Memorial Institute (RPMI) 1640 medium at 37 °C for up to 6 hours, followed by radio-HPLC analysis.

[6] = tested on: IMR5 cells; assay: Cytotoxicity in IMR5 cells with subcellular eDHFR-YFP; type: cell-based, human
Method: Using standard cloning procedures and DNA sequence synthesis, the recombinant eDHFR protein was modified in the following ways. First, the eDHFR nucleotide sequence was extended with a yellow fluorescent protein (YFP) domain at the C-terminus to construct a fusion eDHFR-YFP protein. See, Sellmyer, Mol Ther 2020; 28:42-51. Then, one of the following localization domains was added: simian virus 40 nuclear localization signal (NLS) at the N-terminus, human immunodeficiency virus Rev protein nuclear export signal (NES) at the C-terminus, and Saccharolobus solfataricus P2 DNA-binding domain 7d (DNAB) at the N-terminus. See, Kobayashi, Antimicrob Agents Chemother 2006; 50:1118-1119; and Kalichuk, Sci Rep 2016; 6:37274. The resulting library of pUC57 plasmids, each containing one of NLS-eDHFR-YFP, eDHFR-YFP-NES, and DNAB-eDHFR-YFP, were successfully cloned into a lentiviral vector. The lentiviral plasmids were introduced into HEK293T cells for viral production and isolation.
Then, three human cancer cell lines were cultured: HCT116 (colorectal cancer), IMR5 (neuroblastoma), and SKOV3 (ovarian cancer). They were transfected with the three lentiviral constructs for expression of NLS-eDHFR-YFP, eDHFR-YFP-NES, and DNAB-eDHFR-YFP, resulting in nine cell lines in total. Subcellular localization of eDHFR-YFP in the cell lines was verified with fluorescence microscopy.
Cytotoxicity experiments were performed as follows: wild-type IMR5 cells as well as those expressing eDHFR-YFP localized to the DNA, nucleus, and cytoplasm were treated with various concentrations of ^211At-PAB-TMP for 72 hours. The survival fraction for each treatment condition was measured with luminescent cell viability assay.
The resulting survival vs. dose curves were analyzed to determine effective concentrations for 50% reduction in cell viability (EC50). See, FIGS. 16A-16C. […] See, FIGS. 16A-16C. […] 6; 20(7): 1752-1755.

[7] = molecular target: T2, eDHFR; type: cell-based; conditions: for affinity for eDHFR binding in cells: HCT116 cells, non-radiolabeled, vs para-benzyl-iodo-TMP; for EC50: read-out: EC50 for eDHFR binding, HCT-116 cells, tsLuc-DD-DHFR, compounds not radiolabeled
[8] = Serum stability in FBS; type: in vitro ADME; conditions: non-radioactive compound, FBS, 37 °C, 72 h
Method: In vitro serum stability of was performed by adding the [^131I]mI-TMP (50 μL, 1.85 MBq) to fetal bovine serum (500 μL). The mixture was then incubated in a ThermoMixer (800 rpm) at 37 °C, and deiodination was analyzed by radio-TLC (10% NH40Ac:MeOH=3:7) at 0, 24, and 72 h. In this condition, free I-131 moved to solvent front whereas intact [^131I]I-TMP remained at the origin.

[9] = molecular target: T2, eDHFR; assay: Differential scanning fluorimetry (thermal shift assay); type: binding; conditions: 0.1 mg/mL protein, 10 mM stock compound, 20-95 °C ramp
Method: Purified protein is diluted to 0.1 mg/mL protein in 500 μL in mild buffer, 25 mM HEPES pH=7.5, 200-500 mM NaCl, DTT. 17 μL of the 0.1 mg/mL protein sample is aliquoted into an opaque white 384 well PCR plate. Then 2 μL of stabilizing additive or 1 μL additive and 1 μL of concentrated drug (10 mM TMP or 10 mM cold mI-TMP or vehicle, plus 1 μL of 1×SYPRO Orange dye was added and the total well volume is 20 μL. The plate is sealed with clear optical cover, protect it from light with foil, and let it incubate for 5 minutes. Then the plate is centrifuged at 3,600×g for 2 minutes. The plate is analyzed on RT-PCR machine using a temperature-ramp method that ranges from 20-95 °C.

COc1cc(Cc2cnc(N)nc2N)cc(OC)c1OC [TMP, trimethoprim]
cytotoxicity at the lowest TMP concentration ([1]; 40 μM, all cell types): non-toxic
cytotoxicity from non-radiolabeled TMP in cells expressing membrane-bound eDHFR-YFP ([1]; 72 h): higher cytotoxicity

COc1cc(Cc2cnc(N)nc2N)cc([125I])c1OC [[^125I]mI-TMP, 5-(3-iodo-4,5-dimethoxybenzyl)pyrimidine-2,4-diamine]
Kd ([2]; I45 cells): 0.65 ± 0.11 nM
Kd ([2]; SKOV3 cells): 0.13 ± 0.17 nM
uptake of the radiotracer in eDHFR+ cells relative to WT cells [3]: ~ 50 fold and ~ 30 fold

[131I-].[Na+] [[^131I]I—Na, reference compound]
cytotoxic effect / cell viability [4]: showed viability and significant growth

COc1cc(Cc2cnc(N)nc2N)cc([211At])c1OC [[^211At]At-TMP]
in vitro stability in aqueous media [5]: stability of [^211At]TMP in aqueous media for up to 6 hours

COc1cc(Cc2cnc(N)nc2N)cc(OC)c1OCc1ccc([211At])cc1 [^211At-PAB-TMP, ^211At-para-astatobenzyl-trimethoprim]
cytotoxicity by eDHFR-YFP subcellular location ([6]; IMR5 cells, 72 hours, luminescent viability): Higher cytotoxicity was seen with increasing proximity to DNA, resulting in significantly lower EC50 values; also recorded: highest in the IMR5 cells expressing DNA-bound eDHFR-YFP, followed by nuclear and cytoplasmic eDHFR-YFP

O=C1NCCn2c(-c3ccc([211At])cc3)nc3cccc1c32 [^211At-PTT, reference compound]
difference in cytotoxicity among the eDHFR IMR5 cells ([6]; positive control): no difference in cellular toxicity; also recorded: did not result in difference in cytotoxicity among the IMR5 cells

COc1cccc2c1C(=O)c1c(O)c3c(c(O)c1C2=O)C[C@@](O)(C(=O)CO)C[C@@H]3O[C@H]1C[C@H](N)[C@H](O)[C@H](C)O1 [doxorubicin, reference compound]
cytotoxicity of doxorubicin, wild-type vs eDHFR-YFP-expressing cells ([1]; 72 h, 10 nM-1 μM): comparable cytotoxicity; also recorded: comparable chemosensitivity

COc1cc(Cc2cnc(N)nc2N)cc(Br)c1OC [mBr-TMP]
affinity for eDHFR binding in cells [7]: higher affinity for eDHFR binding in cells than the para-benzyl-iodo-TMP
EC50 [7]: 5 nM

COc1cc(Cc2cnc(N)nc2N)cc(I)c1OC [mI-TMP, 5-(3-iodo-4,5-dimethoxybenzyl)pyrimidine-2,4-diamine]
stability in FBS by LCMS [8]: confirmed the stability of TMP-I (3a) in FBS
affinity for eDHFR binding in cells [7]: higher affinity for eDHFR binding in cells than the para-benzyl-iodo-TMP
EC50 [7]: 5 nM
stabilization of eDHFR in thermal shift assay (DSF) [9]: stabilizes eDHFR as TMP
stabilization of eDHFR in thermal shift assay (DSF) ([9]; listed as TMP-I (3b)): strongly stabilizes eDHFR, similar to TMP

^211At-para-astatobenzyl-trimethoprim [^211At-PAB-TMP]
killing of eDHFR expressing neuroblastoma cells [6]: enhanced killing of eDHFR expressing neuroblastoma cells
